Here are results for 3 molecules from paper PMC6797808, “Fucosylated inhibitors of recently identified bangle lectin from Photorhabdus asymbiotica” (Scientific Reports, 2019).

Converted amounts (≈) assume the structure as drawn. Marks after values point to notes of the source that are not given here.

In test [1] the target is T1, PHL (Photorhabdus asymbiotica, UniProt C7BLE4). The test is described as follows: Hemagglutination inhibition assay with PHL (papain-treated human RBCs O). Type of test: cell-based. Particulars: for MIC (minimal inhibitory concentration, hemagglutination by PHL): RBC O, two independent measurements; for PotencyL-Fuc: MIC L-fucose / MIC ligand; for β L-Fuc (affinity improvement factor): MICbasic unit/(valency × MICligand), basic unit L-Fuc. How it is done:
The set of potential ligands 1–10 with different levels of fucosylation was tested, and their inhibition potency on hemagglutination by PHL was assessed (Table 1, Fig. 2). […] To assess the contribution of valency to the affinity increase, an affinity improvement factor β was calculated as the relationship MICbasic unit/(valency × MICligand).
Human red blood cells (RBCs) O were processed according to previously published work[16]. In brief, RBCs O treated with sodium citrate were washed four times by PBS buffer (137 mM NaCl, 2.7 mM KCl, 8 mM Na2HPO4, 1.47 mM KH2PO4, pH 7.4), diluted to 50% by PBS with 0.005% (w/w) sodium azide and treated by 0.1% papain for the duration of 30 minutes.
Hemagglutination inhibition assay was performed for specificity and semi-quantitative affinity of the PHL interaction with the compounds. All carbohydrate inhibitors in 50 mM starting concentration were serially diluted in the PBS buffer and used for a determination of the lowest inhibiting concentration. As a blank, the PBS buffer supplemented with the appropriate amount of DMSO was used in order to exclude potential interference with the interaction. The individual samples were mixed with the lectin in concentration 2 mg/ml in a 5 μl:5 μl ratio. Thereafter, 10 μl of 10% RBCs O in PBS buffer was added, thoroughly mixed and incubated for 10 minutes at room temperature. Following incubation, the mixture was again mixed and the reaction was observed on microscope slides using Levenhuk 2L NG microscope with Levenhuk D2L digital camera (Levenhuk, USA). Imagines were obtained via software ToupView for Windows (Levenhuk). The positive (PHL without inhibitor) and negative control (reaction without PHL) were prepared and processed in the same way using the appropriate volume of PBS buffer instead of the not included components. The lowest concentration of inhibitor able to inhibit agglutination was determined and compared with the standard (L-fucose). Minimal inhibitory concentrations (MIC) of synthesised inhibitors were determined from two independent measurements.

Test [2] addresses T1, PHL. The test is described as follows: Isothermal titration calorimetry of PHL with ligands. Particulars: for n (stoichiometry): two independent measurements; for Potency L-Fuc: KD L-fucose / KD ligand; for β L-Fuc (affinity improvement factor): KD,basic unit/(valency × KD,ligand), basic unit L-Fuc. It is filed as binding. The text has this:
The binding of PHL to different α-L-fucoside compounds was further characterized by isothermal titration calorimetry (ITC), enabling determination of the complete thermodynamic profile of the molecular interactions (Table 3, Fig. 4). […] Because of this, it was not possible to evaluate the data, despite the obvious interaction. The dendrimers also cross-linked/aggregated the protein as with calixarenes, however the curves provided clear outcomes with an affinity in the low micromolar range. The dissociation constants (KD) of all dendrimers correlate with their valency – the higher number of fucose, the more decreased KD. […] The stoichiometry value n corresponds to the number of terminal fucoses per ligand molecule. The n value decreases from 4 to 1 as the number of fucose units increases from 1 to 12 (Table 3).
PHL protein in buffer A was equilibrated at room temperature at least for 30 min before ITC measurement. All ITC experiments were performed using ITC200 calorimeter (Malvern Panalytical, UK) at 25 °C. Carbohydrate ligands dissolved in buffer A were used at different concentrations. Protein in the calorimeter cell (50 μM) was titrated by consecutive additions (2 μl) of the ligand (1.5–5 mM) in the syringe while stirring at 1000 rpm. Integrated heat effects were analysed by nonlinear regression using a single-site binding model and global fitting in Origin 7 software (Microcal Instruments)[37]. The thermodynamic parameters of synthesised inhibitors were determined from two independent measurements.
In general terms: ITC needs no label: the signal is the heat of the interaction.

The target in test [3] is T1, PHL. Kind of test: SPR competitive inhibition of PHL binding to α-L-fucoside sensor chip. Particulars: for IC50: 25 °C, three independent measurements; for β L-Fuc (affinity improvement factor): IC50,basic unit/(valency × IC50,ligand), basic unit L-Fuc; for PotencyL-Fuc: IC50 L-fucose / IC50 ligand. How it is done:
To analyse the competitive inhibition of PHL binding to a multivalent surface, the surface plasmon resonance (SPR) technique was employed. A sensor chip presenting α-L-fucopyranoside residues was treated with a constant concentration of PHL, while an increasing concentration of the ligands was used to determine IC50 (Table 2, Fig. 3). […] To assess the contribution of valency to the affinity increase, an affinity improvement factor β was calculated as the relationship IC50,basic unit/(valency × IC50,ligand)[30].
Surface plasmon resonance (SPR) experiments were performed on a BIAcore T200 instrument (GE Healthcare, UK) at 25 °C, using buffer A supplemented with 0.05% Tween 20 as a running buffer. α-L-fucoside was immobilized onto CM5 sensor chip (GE Healthcare, UK) covered with a carboxymethylated dextran matrix. The sensor chip surface was activated with N-ethyl-N-(3-dimethylaminopropyl)carbodiimide/N-hydroxysuccinimide solution and then coated with streptavidin using the manufacturer’s standard protocol using HBS buffer (10 mM HEPES, 150 mM NaCl, 0.05% Tween 20, pH 7. 5). Unreacted groups were blocked with 1 M ethanolamine-HCl, pH 8.5. Biotinylated carbohydrate (biotinilated monomeric probes, Lectinity, Russia) was injected onto particular measuring channel and pure biotin on blank channel at a flow rate of 5 μl/min.
SPR inhibition measurements were carried out on measuring channel with L-fucoside at a flow rate of 5 µl/min. PHL was diluted to a concentration of 20 μg/ml by the buffer A supplemented with 0.05% Tween 20, mixed 1:1 (v/v) with various concentrations of inhibitors (500–5 μM) in the same buffer and injected onto the sensor chip. The response of lectin bound to the sugar surface at equilibrium was plotted against the concentration of inhibitor in order to determine IC50 (concentration of inhibitor resulting in 50% inhibition of binding). As IC50 is not a constant and depends on the experimental set-up, a parameter called potency was used for characterization. The potency of a tested inhibitor is the ratio of IC50 of a chosen standard inhibitor (in this case L-fucose) and the inhibitor in question. Pure PHL lectin was used as a control (0% inhibition) and channel with pure biotin served as a blank. IC50 was determined from triplicates.

T1 sequence (C7BLE4 entry or part of it): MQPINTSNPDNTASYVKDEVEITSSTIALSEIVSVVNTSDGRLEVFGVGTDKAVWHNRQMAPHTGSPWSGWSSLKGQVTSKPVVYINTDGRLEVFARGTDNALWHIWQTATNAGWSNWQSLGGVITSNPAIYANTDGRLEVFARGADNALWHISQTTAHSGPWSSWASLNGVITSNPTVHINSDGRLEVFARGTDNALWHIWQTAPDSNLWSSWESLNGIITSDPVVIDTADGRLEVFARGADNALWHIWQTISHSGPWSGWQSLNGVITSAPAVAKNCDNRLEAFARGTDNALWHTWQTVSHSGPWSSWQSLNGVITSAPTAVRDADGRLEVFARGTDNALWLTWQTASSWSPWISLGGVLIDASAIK

Usually Kd stands for the equilibrium constant for the complex coming apart. A high value points to weaker binding. In general, IC50 refers to the midpoint of a concentration-inhibition curve. Read a low IC50 as greater potency. Turning to `C[C@@H]1O[C@@H](CCn2cc(COCC(COCc3cn(CC[C@@H]4O[C@@H](C)[C@@H](O)[C@@H](O)[C@@H]4O)nn3)(COCc3cn(CC[C@@H]4O[C@@H](C)[C@@H](O)[C@@H](O)[C@@H]4O)nn3)COCC(COCc3cn(CC[C@@H]4O[C@@H](C)[C@@H](O)[C@@H](O)[C@@H]4O)nn3)(COCc3cn(CC[C@@H]4O[C@@H](C)[C@@H](O)[C@@H](O)[C@@H]4O)nn3)COCc3cn(CC[C@@H]4O[C@@H](C)[C@@H](O)[C@@H](O)[C@@H]4O)nn3)nn2)[C@@H](O)[C@H](O)[C@@H]1O` [Dendrimer 9], on PHL [1], the “MIC (minimal inhibitory concentration, hemagglutination by PHL)” value was determined as 25 µM (≈ 44.6 µg/mL). The PotencyL-Fuc at PHL [1] (hemagglutination) is recorded as 125; at PHL [1] (hemagglutination, listed as dendrimer 9) it was “more than 100”; on PHL [3] it was 9,762; at PHL [3] (listed as dendrimer 9) it was 9,800. Also, the “β L-Fuc (affinity improvement factor)” value on PHL [1] (hemagglutination) is reported as 20.8; at PHL [2] (ITC), 19; at PHL [3], 1,631; at PHL [3] (listed as dendrimer 9), “over 1,600”. The “β Azide1 (affinity improvement factor)” value on PHL [1] (hemagglutination, basic unit azide 1) worked out at 1.3; at PHL [2] (ITC, basic unit azide 1) it was 1; at PHL [3] (basic unit azide 1), 52. Moreover, the PotencyAzide1 on PHL [1] (hemagglutination, relative to azide 1) stood at 8; at PHL [2] (ITC, relative to azide 1), 8; at PHL [3] (relative to azide 1), 311; at PHL [3] (relative to azide 1, listed as dendrimer 9) it was 310. Besides, the Kd at PHL [2] (ITC at 25 °C) turned out to be 12.5 ± 0.6 µM; on PHL [2] (ITC at 25 °C, listed as hexavalent dendrimer), 13 µM. Moreover, on PHL [2] (ITC at 25 °C), the “−TΔS” value is 10.4 ± 0.382 kcal/mol. In addition, on PHL [2] (ITC at 25 °C), the “−ΔG” value was found to be 6.69 ± 0.311 kcal/mol. Also, the “−ΔH” value on PHL [2] (ITC at 25 °C) stood at 17.1 ± 0.19 kcal/mol. Also, the “n (stoichiometry)” value on PHL [2] (ITC at 25 °C) turned out to be 2.0 ± 0.0. For the same molecule, on PHL [2] (ITC), the “Potency L-Fuc” value was found to be 112. Further, at PHL [3], the 50% inhibitory concentration (IC50) turned out to be 0.037 ± 0.003 µM.
Consider `C[C@@H]1OC(CCCCC2O[C@@H](C)[C@@H](O)[C@@H](O)[C@@H]2O)[C@@H](O)[C@H](O)[C@@H]1O` (stereo partly drawn) [Difucoside 5, 1,4-bis(fucopyranosyl)butane], for which the “MIC (minimal inhibitory concentration, hemagglutination by PHL)” value on PHL [1] was determined as 200 µM (≈ 70.1 µg/mL). Further, at PHL [1] (hemagglutination), the PotencyL-Fuc came to 15.6 and the “β L-Fuc (affinity improvement factor)” value was determined as 7.8. The PotencyL-Fuc on PHL [1] (hemagglutination, listed as difucoside 5) was 16. Further, on PHL [2] (ITC at 25 °C), the dissociation constant Kd came to 120 ± 11 µM, the “−TΔS” value was 3.61 ± 0.789 kcal/mol, the “−ΔG” value was determined as 5.35 ± 0.502 kcal/mol and the “−ΔH” value amounted to 8.96 ± 0.621 kcal/mol. Moreover, the “n (stoichiometry)” value on PHL [2] (ITC at 25 °C) is listed as 3.9 ± 0.2. Also, on PHL [2] (ITC), the “Potency L-Fuc” value is listed as 12 and the “β L-Fuc (affinity improvement factor)” value worked out at 6. Moreover, at PHL [3], the half-inhibitory concentration (IC50) is 4.18 ± 0.42 µM, the “β L-Fuc (affinity improvement factor)” value turned out to be 43 and the PotencyL-Fuc amounted to 86.
On to `C[C@H](O)[C@@H](O)[C@@H](O)[C@H](O)C=O` [L -Fuc, L-fucose, reference compound], for which the “MIC (minimal inhibitory concentration, hemagglutination by PHL)” value at PHL [1] is reported as 3,200 μM. Moreover, at PHL [1] (hemagglutination), the PotencyL-Fuc was determined as 1 and the “β L-Fuc (affinity improvement factor)” value is reported as 1. Besides, on PHL [2] (ITC at 25 °C), the affinity, expressed as Kd, was 1400 µM; the “−TΔS” value was 10.3 ± 0.239 kcal/mol; the “−ΔG” value is 3.9 ± 0.096 kcal/mol; the “−ΔH” value amounted to 14.2 ± 0.239 kcal/mol. On PHL [2] (ITC at 25 °C, fixed value based on α-Me-Fuc measurement and PHL/BGH crystal structure), the “n (stoichiometry), fixed during the fitting procedure” value was 3*. Also, at PHL [2] (ITC), the “Potency L-Fuc” value was 1 and the “β L-Fuc (affinity improvement factor)” value was found to be 1. Besides, on PHL [3], the 50% inhibitory concentration (IC50) came to 362 ± 33 µM, the “β L-Fuc (affinity improvement factor)” value is recorded as 1 and the PotencyL-Fuc is recorded as 1.
